Results from patent US20250230138A1, “COMPOUNDS HAVING A T-STRUCTURE FORMED BY AT LEAST FOUR CYCLES FOR USE IN THE TREATMENT OF CANCER AND OTHER INDICATIONS” (TheRas, Inc., priority 2022, published 2025).
Like-named read-outs stand apart in the source and are kept apart here.

Columns and labels:
[1] = molecular target: Cys242 in human PIK3CA (157-299) (Homo sapiens (Human), UniProt P42336); assay: Covalent modification assay using MALDI-TOF MS; format: biochemical; settings: 4 h reaction time point; 3.33 μM protein target, 1:7.5 protein to compound ratio (compounds 1-852)
Method in brief: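 PIK3CA (157-299) at 3.33 μM or 1 μM in 20 mM HEPES, 150 mM NaCl, 2 mM MgCl2, pH 7.3 was incubated with compound (from 10 mM DMSO stocks) in the dark at room temperature for 15 min, 30 min, 2 h or 4 h. Linear-mode MALDI-TOF peak heights gave percent modification.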

pAKT in BT474 cells = assay: Cell-based pAKT HTRF assay in BT474 cells; settings: BT474 cells, 4 hr incubation, Compounds 10-999, read-out: pAKT inhibition IC50 in BT474 cells
Method in brief: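 pAKT was measured by HTRF after a 4 hr compound exposure in BT474 cells (DMEM, 10% FBS, 0.25% DMSO), using 9 concentrations from 3 μM in 3-fold steps. Cell lysates were incubated with the Eu cryptate/d2 antibody pair at room temperature for 4 to 24 h. The plate was then read at 320 nm excitation and 615 nm emission.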

Sequence of Cys242 in human PIK3CA (157-299) (P42336 157-299): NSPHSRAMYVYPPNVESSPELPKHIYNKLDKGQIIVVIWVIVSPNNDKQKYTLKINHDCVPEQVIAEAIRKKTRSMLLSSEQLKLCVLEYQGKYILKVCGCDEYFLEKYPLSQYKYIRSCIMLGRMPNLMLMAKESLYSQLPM

Structure (SMILES)	IC50 (pAKT in BT474 cells)	IC50 (pAKT in BT474 cells; Homo sapiens, BT-474)	% of modification [1]
C=CC(=O)N1CCc2ncc(-c3nc(-c4cnn(C)c4)c4ccsc4c3-c3c(F)cc(F)cc3OC(C)C)cc2C1 [Compound 324]	< 100 nM	–	A (percent of modification of PIK3CA protein ≥75%)
C=CC(=O)N1CCc2ncc(-c3nc(-c4ccc(=O)n(C)c4)c4ccsc4c3-c3c(F)cc(F)cc3OC(C)C)cc2C1 [Compound 330]	< 100 nM	–	A (percent of modification of PIK3CA protein ≥75%)
C=CC(=O)N1CCn2nc(-c3nc(-c4ccc(=O)n(C)c4)nc(C)c3-c3ccc(F)cc3OC(C)C)cc2C1 [Compound 331, 5-[5-(4-fluoro-2-isopropoxy-phenyl)-4-methyl-6-(5-prop-2-enoyl-6,7-dihydro-4H-pyrazolo[1,5-a]pyrazin-2-yl)pyrimidin-2-yl]-1-methyl-pyridin-2-one]	–	1000 to 3000 nM	A (percent of modification of PIK3CA protein ≥75%)
C=CC(=O)N1CCc2ncc(-c3nc(-c4ccn(C)c(=O)c4)c4ccsc4c3-c3c(F)cc(F)cc3OC(C)C)cc2C1 [Compound 336]	< 100 nM	–	A (percent of modification of PIK3CA protein ≥75%)
C=C(F)C(=O)N1CCn2nc(-c3nc(-c4cnc5c(c4)CN(C)CC5)c4ccsc4c3-c3c(F)cc(F)cc3OC(C)C)cc2C1 [Compound 340]	< 100 nM	–	B (50%<percent of modification <75%)
C=C(F)C(=O)N1CCn2nc(-c3nc(-c4ccc5c(c4)CNC5=O)c4ccsc4c3-c3c(F)cc(F)cc3OC(C)C)cc2C1 [Compound 341]	< 100 nM	–	B (50%<percent of modification <75%)
C=C(F)C(=O)N1CCn2nc(-c3nc(-c4ccc5c(c4)CCN(C)C5)c4ccsc4c3-c3c(F)cc(F)cc3OC(C)C)cc2C1 [Compound 342]	< 100 nM	–	B (50%<percent of modification <75%)
C=CC(=O)N1CCc2nc(-c3nc(-c4cnn(CC(C)(C)O)c4)c4ccsc4c3-c3c(F)cc(F)cc3OC(C)C)sc2C1 [Compound 344]	< 100 nM	–	A (percent of modification of PIK3CA protein ≥75%)
C=CC(=O)N1CCc2ncc(-c3nc(-c4cnn(CC(C)(C)O)c4)c4ccsc4c3-c3c(F)cc(F)cc3OC(C)C)cc2C1 [Compound 345]	< 100 nM	–	A (percent of modification of PIK3CA protein ≥75%)
C=CC(=O)N1CCc2nc(-c3nc(-c4ccc(=O)n(C)c4)c4ccsc4c3-c3c(F)cc(F)cc3OC(C)C)sc2C1 [Compound 348]	< 100 nM	–	A (percent of modification of PIK3CA protein ≥75%)
C=CC(=O)N1CCc2nc(-c3nc(-c4ccn(C)c(=O)c4)c4ccsc4c3-c3c(F)cc(F)cc3OC(C)C)sc2C1 [Compound 352]	< 100 nM	–	A (percent of modification of PIK3CA protein ≥75%)
C=C(F)C(=O)N1CCn2nc(-c3nc(-c4ccc5c(c4)[C@@H](O)CC5)c4ccsc4c3-c3c(F)cc(F)cc3OC(C)C)cc2C1 [Compound 354]	< 100 nM	–	B (50%<percent of modification <75%)
C=CC(=O)N1Cc2cc(-c3nc(-c4cnn(C)c4)c4ccsc4c3-c3ccc(F)cc3OC(C)C)nn2[C@H](C)C1 [Compound 357, 1-((7R)-2-(7-(4-fluoro-2-isopropoxyphenyl)-4-(1-methyl-1H-pyrazol-4-yl)thieno[3,2-c]pyridin-6-yl)-7-methyl-6,7-dihydropyrazolo[1,5-a]pyrazin-5(4H)-yl)prop-2-en-1-one]	–	< 100 nM	A (percent of modification of PIK3CA protein ≥75%)

The next lines start with results.

IC50 (pAKT in BT474 cells)	IC50 (pAKT in BT474 cells; Homo sapiens, BT-474)	Structure (SMILES)	% of modification [1]
100 to 1000 nM	–	C=C(F)C(=O)N1CCn2nc(-c3nc(-c4ccc5c(c4)CCN(C)C5)c4ccsc4c3-c3ccc(F)cc3OCC(F)F)cc2C1 [Compound 325]	B (50%<percent of modification <75%)
< 100 nM	–	C=CC(=O)N1CCc2ncc(-c3nc(-c4ccc5c(c4)CNC5=O)c4ccsc4c3-c3c(F)cc(F)cc3OC(C)C)cc2C1 [Compound 326]	A (percent of modification of PIK3CA protein ≥75%)
< 100 nM	–	C=CC(=O)N1CCc2ncc(-c3nc(-c4cnc5c(c4)CN(C)CC5)c4ccsc4c3-c3c(F)cc(F)cc3OC(C)C)cc2C1 [Compound 327]	A (percent of modification of PIK3CA protein ≥75%)
< 100 nM	–	C=CC(=O)N1CC[C@H](n2cc(-c3nc(-c4ccc5c(c4)CNC5=O)c4ccsc4c3-c3ccc(F)cc3OC(C)C)cn2)C1 [Compound 328]	A (percent of modification of PIK3CA protein ≥75%)
100 to 1000 nM	–	C=CC(=O)N1CC[C@@H](n2ccc(-c3nc(-c4cnn(C)c4)c4ccsc4c3-c3ccc(F)cc3OC(C)C)n2)C1 [Compound 329]	A (percent of modification of PIK3CA protein ≥75%)
–	< 100 nM	C=CC(=O)N1CC[C@H](n2cc(-c3nc(-c4ccc5c(c4)CNC5=O)c4ccsc4c3-c3c(F)cc(F)cc3OC(C)C)cn2)C1 [Compound 334, 5-[7-(2,4-difluoro-6-isopropoxy-phenyl)-6-[1-[(3S)-1-prop-2-enoylpyrrolidin-3-yl]pyrazol-4-yl]thieno[3,2-c]pyridin-4-yl]isoindolin-1-one]	A (percent of modification of PIK3CA protein ≥75%)
< 100 nM	–	C=CC(=O)N1CCc2ncc(-c3nc(-c4ccc(=O)n(C(F)F)c4)c4ccsc4c3-c3c(F)cc(F)cc3OC(C)C)cc2C1 [Compound 335]	A (percent of modification of PIK3CA protein ≥75%)
–	> 3000 nM	C=CC(=O)N1CCn2nc(-c3nc(-c4ccc(=O)n(C)c4)ncc3-c3ccc(F)cc3OC(C)C)cc2C1 [Compound 337, 5-[5-(4-fluoro-2-isopropoxy-phenyl)-4-(5-prop-2-enoyl-6,7-dihydro-4H-pyrazolo [1,5-a]pyrazin-2-yl)pyrimidin-2-yl]-1-methyl-pyridin-2-one]	B (50%<percent of modification <75%)
< 100 nM	–	C=CC(=O)N1CCc2nc(-c3nc(-c4cnn(C)c4)c4ccsc4c3-c3c(F)cc(F)cc3OC(C)C)sc2C1 [Compound 339]	A (percent of modification of PIK3CA protein ≥75%)
100 to 1000 nM	–	C=CC(=O)N1CCc2nc(-c3nc(-c4ccc(=O)n(C(F)F)c4)c4ccsc4c3-c3c(F)cc(F)cc3OC(C)C)sc2C1 [Compound 347]	A (percent of modification of PIK3CA protein ≥75%)
100 to 1000 nM	–	C=CC(=O)N1CCc2nc(-c3nc(-c4cnn(C)c4N)c4ccsc4c3-c3c(F)cc(F)cc3OC(C)C)sc2C1 [Compound 351]	A (percent of modification of PIK3CA protein ≥75%)
100 to 1000 nM	–	C=C(F)C(=O)N1CCn2nc(-c3nc(-c4ccc5c(c4)CNC5=O)c4ccsc4c3-c3c(F)cc(F)cc3OCC(F)F)cc2C1 [Compound 353]	B (50%<percent of modification <75%)
–	> 3000 nM	C=CC(=O)N1CCn2nc(-c3nc(-c4cnn(C)c4)c(Cl)cc3-c3ccc(F)cc3OCCOC)cc2C1 [Compound 355, 1-[2-[5-chloro-3-[4-fluoro-2-(2-methoxyethoxy)phenyl]-6-(1-methylpyrazol-4-yl)-2-pyridyl]-6,7-dihydro-4H-pyrazolo[1,5-a]pyrazin-5-yl]prop-2-en-1-one]	A (percent of modification of PIK3CA protein ≥75%)
< 100 nM	–	C=C(F)C(=O)N1CCn2nc(-c3nc(-c4cnc5c(c4)CNC5=O)c4ccsc4c3-c3c(F)cc(F)cc3OC(C)C)cc2C1 [Compound 356]	A (percent of modification of PIK3CA protein ≥75%)
